In patent US20080182859A1 (Curis, Inc., priority 2006, published 2008) one finds EC50 data, which are given here for 18 compounds.

SMILES strings stand for the structures. Structures can show the parent of a compound that is named as a salt.

The test system of assay [1] is sonic hedgehog pathway. The assay can be described thus: Hedgehog pathway Gli-luciferase reporter assay, TM3 cells. It is filed as cell-based. Conditions: TM3 mouse Leydig cells. The source says: (§1) Mouse (TM3: mouse Leydig cells; S12: mouse embryonic mesenchymal cells) and human (Daoy: human medulloblastoma cell; HepM: human embryonic palatal mesenchymal cell) cell lines are used to screen small molecules for their ability to modulate the activity of the sonic hedgehog pathway (Table 1, Table 2, and Table 3). Stable hedgehog pathway reporter cell lines are established by specific antibiotic selection following transfection of a reporter plasmid containing a luciferase gene located directly downstream from the gli promoter. Consequently, any observable changes in cellular luciferase activity may be attributed to changes in sonic hedgehog pathway activity in mouse and human cells, respectively, since gli is the major by-product of this pathway. To calculate activity, we generate an eleven point dose curve for each compound using 1:3 dilutions in 96 well assay plates. Each plate tested also contains low and high control to establish maximal pathway activation so to establish/compare a percentage activation of each tested compound (AMAX) on respective plates. Also we calculate EC50 values, or a concentration where the pathway will be exactly 50% activated, for each tested compound to determine potency. In these cell lines, compounds that register >20% AMAX values are considered active.
(§2) Stable hedgehog pathway reporter cell lines are established following specific antibiotic selection following transfection of a reporter plasmid In short, typically cells are plated in MicroTiter-plates at 10,000-20,000 cells per well, in growth media (containing 10%-20% FBS). After 48-72 hrs (HGL and DGL respectively) the media in the assay plates is switched to low-serum containing media (0.5% FBS). At that time compounds are added (at 1-5 μM) to the assay plates, in the presence or absence of hedgehog protein (octyl-modified version; 1-5 ng/ml). After another 24 hrs of incubation, the media from the assay plates is discarded and replaced with luciferase assay-mix. Subsequently, plates are incubated at RT for ˜15-30 mins and then read in a luminometer. [note: addition of the Hedgehog protein, although not critical, will sensitize the assay allowing the identification of weak actives].

The test system of assay [2] is sonic hedgehog pathway. The assay can be described thus: Human hedgehog reporter assay Daoy-GliLuc (DGL). It is filed as cell-based. The conditions noted are these: Daoy human medulloblastoma cells, Gli-luciferase reporter; read-out: Daoy Avg. EC50.
Description: as §1, §2
A general note: In a reporter assay the amount or activity of a reporter protein is the signal.

The EC50 is the midpoint of the concentration-response curve. In assay [1], `CN[C@H]1CC[C@H](N(Cc2cc(-c3ccc(N(C)C(C)=O)cc3)ccc2F)C(=O)c2sc3ccccc3c2Cl)CC1` [Compound 430, 3-Chloro-benzo[b]thiophene-2-carboxylic acid [4′-(acetyl-methyl-amino)-4-fluoro-biphenyl-3-ylmethyl]-(4-methylamino-cyclohexyl)-amide trifluoroacetate] gave an EC50 of 1000 to 2500 nM. Consider `CN[C@H]1CC[C@H](N(Cc2cc(-c3ccccc3)ccc2F)C(=O)c2sc3ccccc3c2Cl)CC1` [Compound 425, 3-Chloro-benzo[b]thiophene-2-carboxylic acid (4-fluoro-biphenyl-3-ylmethyl)-(4-methylamino-cyclohexyl)-amide trifluoroacetate], for which the EC50 in assay [1] and in assay [2] was below 50 nM in each case. Regarding `CN[C@H]1CC[C@@H](N(Cc2cc(-c3ccc(C#N)cc3)ccc2OC)C(=O)c2sc3cccc(F)c3c2Cl)CC1` [Compound 366, 3-Chloro-4-fluoro-benzo[b]thiophene-2-carboxylic acid (4′-cyano-4-methoxy-biphenyl-3-ylmethyl)-(4-methylamino-cyclohexyl)-amide hydrochloride], the EC50 in assay [1] and in assay [2] was below 50 nM throughout. Consider `CN[C@H]1CC[C@@H](N(Cc2cc(-c3cnc(N)nc3)ccc2OC)C(=O)c2sc3ccccc3c2Cl)CC1` [Compound 323, 3-Chloro-benzo[b]thiophene-2-carboxylic acid [5-(2-amino-pyrimidin-5-yl)-2-methoxy-benzyl]-(4-methylamino-cyclohexyl)-amide dihydrochloride], for which the EC50 in assay [1] was 50 to 250 nM; in assay [2] it was below 50 nM. For `CN[C@H]1CC[C@@H](N(Cc2cc(-c3cccc(C(C)=O)c3)ccc2OC)C(=O)c2sc3cccc(F)c3c2Cl)CC1` [Compound 363, 3-Chloro-4-fluoro-benzo[b]thiophene-2-carboxylic acid (3′-acetyl-4-methoxy-biphenyl-3-ylmethyl)-(4-methylamino-cyclohexyl)-amide hydrochloride], the EC50 in assay [1] and in assay [2] was below 50 nM each time. For the compound `CN[C@H]1CC[C@@H](N(Cc2cc(-c3ccc(OC(F)(F)F)cc3)ccc2OC)C(=O)c2sc3ccccc3c2Cl)CC1` [Compound 307, 3-Chloro-benzo[b]thiophene-2-carboxylic acid (4-methoxy-4′-trifluoromethoxy-biphenyl-3-ylmethyl)-(4-methylamino-cyclohexyl)-amide hydrochloride], the EC50 in assay [1] and in assay [2] was below 50 nM each time.

In the case of `CNc1ccc(-c2ccc(F)c(CN(C(=O)c3sc4ccccc4c3Cl)[C@H]3CC[C@H](NC)CC3)c2)cc1` [Compound 432, 3-Chloro-benzo[b]thiophene-2-carboxylic acid (4-fluoro-4′-methylamino-biphenyl-3-ylmethyl)-(4-methylamino-cyclohexyl)-amide dihydrochloride], the EC50 in assay [1] fell in the range of 250 to 1000 nM. For `CCOc1ccc(-c2cnc(N(C)C)nc2)cc1CN(C(=O)c1sc2ccccc2c1Cl)[C@H]1CC[C@H](NC)CC1` [Compound 401, 3-Chloro-benzo[b]thiophene-2-carboxylic acid [5-(2-dimethylamino-pyrimidin-5-yl)-2-ethoxy-benzyl]-(4-methylamino-cyclohexyl)-amide dihydrochloride], the EC50 in assay [1] fell in the range of 1000 to 2500 nM.

As to `CN[C@H]1CC[C@H](N(Cc2cc(-c3ccc(N(C)C=O)cc3)ccc2F)C(=O)c2sc3ccccc3c2Cl)CC1` [Compound 426, 3-Chloro-benzo[b]thiophene-2-carboxylic acid [4-fluoro-4′-(formyl-methyl-amino)-biphenyl-3-ylmethyl]-(4-methylamino-cyclohexyl)-amide trifluoroacetate], the EC50 in assay [1] is below 50 nM; in assay [2], 50 to 250 nM. For `CN[C@H]1CC[C@H](N(Cc2cc(-c3ccc(C(O)C(F)(F)F)cc3)ccc2F)C(=O)c2sc3ccccc3c2Cl)CC1` (stereo partly shown) [Compound 433, 3-Chloro-benzo[b]thiophene-2-carboxylic acid [4-fluoro-4′-(2,2,2-trifluoro-1-hydroxy-ethyl)-biphenyl-3-ylmethyl]-(4-methylamino-cyclohexyl)-amide hydrochloride], in that order: below 50 nM and below 50 nM. As for `CN[C@H]1CC[C@H](N(Cc2cc(-c3ccc(NC(C)=O)cc3)ccc2F)C(=O)c2sc3ccccc3c2Cl)CC1` [Compound 429, 3-Chloro-benzo[b]thiophene-2-carboxylic acid (4′-acetylamino-4-fluoro-biphenyl-3-ylmethyl)-(4-methylamino-cyclohexyl)-amide trifluoroacetate], the EC50 in assay [1] lay in the range of 1000 to 2500 nM. The same measure, in the same setting: next, `CN[C@H]1CC[C@H](N(Cc2cc(-c3ccc(C)cc3)ccc2F)C(=O)c2sc3ccccc3c2Cl)CC1` [Compound 427, 3-Chloro-benzo[b]thiophene-2-carboxylic acid (4-fluoro-4′-methyl-biphenyl-3-ylmethyl)-(4-methylamino-cyclohexyl)-amide trifluoroacetate]: 250 to 1000 nM; `CN[C@H]1CC[C@H](N(Cc2cc(-c3ccnc(C(C)=O)c3)ccc2OC)C(=O)c2sc3c(F)ccc(F)c3c2Cl)CC1` [Compound 407, 3-Chloro-4,7-difluoro-benzo[b]thiophene-2-carboxylic acid [5-(2-acetyl-pyridin-4-yl)-2-methoxy-benzyl]-(4-methylamino-cyclohexyl)-amide dihydrochloride]: below 50 nM.

`CN[C@H]1CC[C@H](N(Cc2cc(-c3ccc(NC=O)cc3)ccc2F)C(=O)c2sc3ccccc3c2Cl)CC1` [Compound 431, 3-Chloro-benzo[b]thiophene-2-carboxylic acid (4-fluoro-4′-formylamino-biphenyl-3-ylmethyl)-(4-methylamino-cyclohexyl)-amide trifluoroacetate] returned an EC50 in assay [1] of 50 to 250 nM.

In turn, `CN[C@H]1CC[C@H](N(Cc2cc(-c3ccc(C(F)(F)F)cc3)ccc2F)C(=O)c2sc3ccccc3c2Cl)CC1` [Compound 422, 3-Chloro-benzo[b]thiophene-2-carboxylic acid (4-fluoro-4′-trifluoromethyl-biphenyl-3-ylmethyl)-(4-methylamino-cyclohexyl)-amide trifluoroacetate] had an EC50 in assay [1] of 250 to 1000 nM. With `CN[C@H]1CC[C@H](N(Cc2cc(-c3ccc(Cl)cc3)ccc2F)C(=O)c2sc3ccccc3c2Cl)CC1` [Compound 428, 3-Chloro-benzo[b]thiophene-2-carboxylic acid (4′-chloro-4-fluoro-biphenyl-3-ylmethyl)-(4-methylamino-cyclohexyl)-amide trifluoroacetate], in assay [1], the EC50 was in the range of 250 to 1000 nM. In assay [1], `CN[C@H]1CC[C@H](N(Cc2cc(-c3ccc(OC)cc3)ccc2F)C(=O)c2sc3ccccc3c2Cl)CC1` [Compound 421, 3-Chloro-benzo[b]thiophene-2-carboxylic acid (4-fluoro-4′-methoxy-biphenyl-3-ylmethyl)-(4-methylamino-cyclohexyl)-amide trifluoroacetate] showed an EC50 of 250 to 1000 nM.

As to `CCOc1ccc(-c2ccc(OC)cc2)cc1CN(C(=O)c1sc2ccccc2c1Cl)[C@H]1CC[C@@H](NC)CC1` [Compound 312, 3-Chloro-benzo[b]thiophene-2-carboxylic acid (4-ethoxy-4′-methoxy-biphenyl-3-ylmethyl)-(4-methylamino-cyclohexyl)-amide hydrochloride], in assay [2], the concentration giving a half-maximal response (EC50) was in the range of 50 to 250 nM.
